As a reminder, the Kd is the concentration at which binding is half-saturated. A lower Kd goes with a tighter complex. Broadly, the IC50 is the concentration at which inhibition is half-maximal. Read a low IC50 as greater potency.

Structures are written as SMILES.

In assay [1] the test system is MCF-7 tumour xenografts. Briefly: In vivo antitumour study, ATRA and VN/14-1 alone or in combination, MCF-7 tumour xenografts. Conditions: single agents: ATRA 33.0, VN/14-1 16.5 μmol kg^−1 day^−1; 36 days. The arrangement: species or system ovariectomised female athymic nude mice. How it is done: The second experiment was similar to that described above, but consisted of only four groups. When the tumour volume has reached about 100 mm^3, the mice were randomly divided in to four groups of five mice each. […] These treatments continued for 36 days and the tumours were measured and processed as described above.
Procedure was similar to that described in Figure 8A.

Assay [2] concerns the target T1, CRABPII (Mus musculus, UniProt P22935).
T1 construct: Wild-type full-length cDNAs for mouse CRABPI and CRABPII were subcloned into the prokaryotic expression vector pRSETB; pRSETB vector fusion leader (purified on Ni-NTA, so a His tag); made in house; host or cells: Escherichia coli BL21(DE3)pLys
T1 sequence (P22935 1-138): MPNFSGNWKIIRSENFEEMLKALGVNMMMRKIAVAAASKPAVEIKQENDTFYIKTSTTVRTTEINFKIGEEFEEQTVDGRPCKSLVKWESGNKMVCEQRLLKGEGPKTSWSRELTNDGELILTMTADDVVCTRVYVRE
Briefly: CRABP competition binding assay, CRABPII. The settings on record: for IC50: competition with [3H]-all-trans-RA. The method, then: Wild-type full-length cDNAs for mouse CRABPI and CRABPII were subcloned into the prokaryotic expression vector pRSETB and transformed into Escherichia coli strain BL21(DE3)pLys ([Chen et al, 1995]). Recombinant fusion proteins were prepared essentially as we have described previously using Ni-NTA resin ([Chen et al, 1995]). The binding of each RAMBA to CRABPI and CRABPII was determined by competition binding assays as described previously ([Chen et al, 1995]). […] IC50 values were calculated as described above in the RAR binding studies.

Assay [3] has as its system MCF-7 tumour xenografts. Briefly: In vivo antitumour study, established MCF-7 tumour xenografts. Conditions: for Reduction in mean tumour volume compared with vehicle control / Reduction in mean tumour volume compared with the ATRA group (10 mg kg^−1 day^−1): 6 weeks; for Antitumour effect relative to ATRA / 4-HPR (33.0 μmol kg^−1 day^−1), in words: VN/14-1 16.5 μmol kg^−1 day^−1, VN/66-1 66.0 μmol kg^−1 day^−1. The method, then: All the animal studies were performed according to the guidelines and approval of the Animal Care Committee of the University of Maryland, School of Medicine. Ovariectomised female athymic nude 4–6-week-old mice were used. […] Ovariectomised mice were then inoculated with MCF-7 cells (2 × 10^6 cells in Matrigel per tumour growth site) subcutaneously (s.c.) on the right and left flank. Tumour volumes were measured weekly with calipers. […] Retinoic acid metabolism blocking agents were formulated in 0.3% HPC (hydroxy propyl cellulose). […] Compounds were injected continuously for three days with a drug holiday of one day after every 3 days of treatment. Twice per week, the mice were weighed and tumours were measured using a caliper. Tumour volume was calculated according to the formula 4/3πr1^2r2 (r1<r2). The tumour treatment study was continued for 6 weeks. At the end of 6 weeks, mice were killed and blood plasma, as well as tumours, were collected, weighed and stored at −80°C until analysis.
Female ovariectomised nude mice bearing established MCF-7 tumour xenografts (200–300 mm^3) were grouped so that the mean tumour volume was similar for each group. […] Tumour sizes were measured twice a week after the start of treatment.
Ovariectomised female athymic nude 4–6-week-old mice were used. Oestrogen pellets (1.7 mg per pellet, 90 day release obtained from Innovative Research of America) were implanted in the mice using a trochar to facilitate tumour growth. Mice were then inoculated with MCF-7 cells (2 × 10^6 cells in Matrigel per tumour growth site) s.c. on the right and left flank. Tumours were allowed to grow for about 4–5 weeks till they were of measurable size (200–300 mm^3). The mice were then grouped as control and treatment groups. Twice every week the mice were weighed and tumours were measured using a caliper. Tumour volume was calculated according to the formula 4/3πr1^2r2 (r1<r2). The tumour treatment study was continued for 6 weeks. […] Mice were weighed twice every week during the 6-week antitumour study.

`CC1=C(/C=C/C(C)=C/C=C/C(C)=C/C(=O)O)C(C)(C)CCC1` [ATRA, all-trans-retinoic acid, reference compound]: in assay [1], the “Tumour growth inhibition compared with controls (in words)” value was “modest tumour growth inhibition”. For the same compound, the Kd in assay [2] (for comparison) was 0.06 µM.

For the compound `CC1=C(/C=C/C(C)=C/C=C/C(C)=C/C(=O)O)C(C)(C)CCC1n1ccnc1` (stereo not drawn) [VN/14-1], the “Reduction in mean tumour volume compared with vehicle control” value in assay [3] (16.5 μmol kg^−1 day^−1 s.c.) was determined as 66.5%; in assay [3] (33.0 μmol kg^−1 day^−1 s.c.) it was 79.4%; in assay [3] (66.0 μmol kg^−1 day^−1 s.c.), 92.6%. The “Reduction in mean tumour volume compared with the ATRA group (10 mg kg^−1 day^−1)” value stood at 45% in assay [3] (33.0 μmol kg^−1 day^−1 s.c.) and 75.61% in assay [3] (66.0 μmol kg^−1 day^−1 s.c.). The “Reduction in mean final tumour weight compared with mice receiving vehicle alone” value in assay [3] (66.0 μmol kg^−1 day^−1) was determined as 92.6%. Besides, in assay [3], the “Antitumour effect relative to ATRA / 4-HPR (33.0 μmol kg^−1 day^−1), in words” value was “comparable with the antitumour effect of ATRA or 4-HPR”. Besides, the “Tumour regression in the antitumour efficacy studies” value in assay [3] (mouse, in vivo) was “did not cause any tumour regressions”. Moreover, in assay [1], the “Tumour growth inhibition compared with controls (in words)” value was “modest tumour growth inhibition”. This compound displayed an IC50 in assay [2] of more than 0.5 µM.

With `CC1=C(/C=C/C(C)=C/C=C/C(C)=C/C(=O)Nc2ccc(O)cc2)C(C)(C)CCC1n1ccnc1` (stereo not drawn) [VN/66-1], the “Antitumour effect relative to ATRA / 4-HPR (33.0 μmol kg^−1 day^−1), in words” value in assay [3] is given as “not better than ATRA”. In assay [2], this compound showed a half-maximal inhibitory concentration (IC50) of more than 0.5 µM.

On to `CC1=C(/C=C/C(C)=C/C=C/C(C)=C\C(=O)Nc2ccc(O)cc2)C(C)(C)CCC1n1ccnc1` (stereo not drawn) [VN/69-1], for which, in assay [2], the IC50 is more than 0.5 µM.

Values taken from publication PMC2360155, “Novel retinoic acid metabolism blocking agents have potent inhibitory activities on human breast cancer cells and tumour growth” (British Journal of Cancer, 2007).
